According to patent US5171748A, “Benz[4,5]imidazole-containing angiotensin antagonists” (Imperial Chemical Industries plc, priority 1989, dated 1992):

Experiments:
[1] = target: T1, AII receptors (cell surface membrane fraction, guinea pig adrenal gland) (Cavia porcellus, UniProt Q9WV26); experiment: Test A: displacement of radiolabelled AII binding to guinea pig adrenal membrane fraction; details: read-out: IC50 (concentration for 50% displacement of radiolabelled AII binding)
T1 construct: from tissue; host or cells: guinea pig adrenal gland, cell surface membrane fraction
T1 sequence (Q9WV26 1-359): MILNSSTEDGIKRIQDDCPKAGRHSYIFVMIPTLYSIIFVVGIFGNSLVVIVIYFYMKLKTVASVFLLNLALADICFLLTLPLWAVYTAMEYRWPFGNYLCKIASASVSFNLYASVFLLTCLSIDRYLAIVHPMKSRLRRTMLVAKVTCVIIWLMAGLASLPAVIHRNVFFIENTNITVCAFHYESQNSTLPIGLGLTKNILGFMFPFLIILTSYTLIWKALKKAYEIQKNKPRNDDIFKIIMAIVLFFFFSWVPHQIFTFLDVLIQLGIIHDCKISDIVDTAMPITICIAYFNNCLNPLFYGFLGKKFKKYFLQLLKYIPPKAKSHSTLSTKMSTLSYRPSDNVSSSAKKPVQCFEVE
Protocol: Test A: This in vitro procedure involves the incubation of the test compound initially at a concentration of 100 micromolar (or less) in a buffered mixture containing fixed concentrations of radiolabelled AII and a cell surface membrane fraction prepared from a suitable angiotensin target tissue. In this test, the source of cell surface membranes is the guinea pig adrenal gland which is well known to respond to AII. Interaction of the radiolabelled AII with its receptors (assessed as radiolabel bound to the particulate membrane fraction following removal of unbound radiolabel by a rapid filtration procedure such as is standard in such studies) is antagonized by compounds which also bind to the membrane receptor sites and the degree of antagonism (observed in the test as displacement of membrane-bound radioactivity) is determined readily by comparing the receptor-bound radioactivity in the presence of the test compound at the specified test concentration with a control value determined in the absence of the test compound. Using this procedure compounds showing at least 50% displacement of radiolabelled AII binding at a concentration of 10^-4 M are retested at lower concentrations to determine their potency. […]

[2] = tested on: angiotensin II-induced pressor responses; experiment: Test C: antagonism of angiotensin II-induced pressor responses in terminally-anaesthetised or conscious rats; format: in vivo; details: Rattus norvegicus, parenteral administration
Protocol: Test C: This in vivo test involves using terminally-anaesthetised or conscious rats in which an arterial catheter has been implanted under anaesthesia for the measurement of changes in blood pressure. The AII antagonistic effects of the test compound following oral or parenteral administration, are assessed against angiotensin II-induced pressor responses. To ensure that the effect is specific the effect of the test compound on vasopressin-induced pressor responses may also be determined in the same preparation.

[3] = target: T2, AII-induced contractions of isolated rabbit aorta (Oryctolagus cuniculus, UniProt P34976); experiment: Test B: antagonism of AII-induced contractions of isolated rabbit aorta; format: cell-based; details: 37° C., read-out: pA2 (converted)
T2 construct: isolated rabbit aorta, maintained in a physiological salt solution; from tissue; host or cells: isolated rabbit aorta
T2 sequence (P34976 1-359): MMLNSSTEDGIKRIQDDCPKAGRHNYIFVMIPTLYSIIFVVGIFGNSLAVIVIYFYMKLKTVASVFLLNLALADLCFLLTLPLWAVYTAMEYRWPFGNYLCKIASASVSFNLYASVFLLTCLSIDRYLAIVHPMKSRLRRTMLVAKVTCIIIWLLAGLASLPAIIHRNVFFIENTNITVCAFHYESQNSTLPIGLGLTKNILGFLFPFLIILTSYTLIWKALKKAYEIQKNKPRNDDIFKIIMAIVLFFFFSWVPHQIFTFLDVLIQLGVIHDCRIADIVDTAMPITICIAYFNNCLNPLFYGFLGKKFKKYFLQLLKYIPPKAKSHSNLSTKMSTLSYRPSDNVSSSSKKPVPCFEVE
Protocol: Test B: This in vitro test involves the measurement of the antagonistic effects of the test compound against AII-induced contractions of isolated rabbit aorta, maintained in a physiological salt solution at 37° C. In order to ensure that the effect of the compound is specific to antagonism of AII, the effect of the test compound on noradrenaline-induced contractions may also be determined in the same preparation.

With `CCCCc1nc2ccccc2n1Cc1ccc(C(=O)NS(=O)(=O)c2ccccc2)cc1` [Example 3, 4-[(2-butyl-1H-benzimidazol-1-yl)methyl]-N-phenylsulphonylbenzamide] the IC50 [1] was 100 nM, the ED50 [2] was 3 mg/kg and the Kb [3] was 25.1 nM.
